Among the test systems are RXF 393; EKVX; SN12C; Malme-3M; UACC-257; SF-539; NCI-H460; RPMI-8226; SR; SW-620; COLO 205; SNB-75; SF-295; OVCAR-5; U-251; M14; SNB-19; NCI-H522; OVCAR-8; SK-MEL-5.
Common to all, as to assay: growth of human tumour cells (NCI), 48 h

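Each compound was tested at five concentrations against cells in 96-well plates for 48 hours. Abbreviation: GI50, concentration required for 50% inhibition of growth.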 Calls of active or inactive are those of the source. Cut-off read from the data, not from the text of the source: active = GI50 up to about 1.1 µM and inactive = higher.

This is an account of results in ChEMBL document CHEMBL1201862, “PubChem BioAssay data set” (2004).

In the case of `CC(C)(C)c1ccc(Oc2ccc(C#N)c(C#N)c2)c(C(C)(C)C)c1`, the GI50 was 24.3 µM (inactive) in the assay with RXF 393; 58.2 µM (inactive) in the assay on EKVX; 43 µM (inactive) with SN12C; > 100 µM (inactive) in the assay on Malme-3M; 29.4 µM (inactive) in the assay with UACC-257; > 93.5 µM (inactive) with SF-539. Also, the GI50 is 28.8 µM (inactive) in the assay with NCI-H460; 17 µM (inactive) with RPMI-8226; 18.7 µM (inactive) with SR; 49.3 µM (inactive) in the assay on SW-620; 28.3 µM (inactive) in the assay on COLO 205; > 26.3 µM (inactive) with SNB-75. For the same compound, the GI50 in the assay on SF-295 is > 58.9 µM (inactive); in the assay on OVCAR-5, > 21 µM (inactive); in the assay on U-251, 33.7 µM (inactive); in the assay on M14, 53 µM (inactive); in the assay on SNB-19, 49.5 µM (inactive); in the assay on NCI-H522 it was 17.2 µM (inactive). In addition, the GI50 was 51.4 µM (inactive) with OVCAR-8 and 31.3 µM (inactive) with SK-MEL-5.
Take `C=C(Cl)C(Cl)(CBr)CCC(Cl)C(C)(C)Cl` (stereo not drawn): the GI50 with RXF 393 is 1.35 µM (inactive); with EKVX it was 8.38 µM (inactive); in the assay on SN12C, 7.38 µM (inactive); in the assay on Malme-3M, 7.24 µM (inactive); with UACC-257, 1.57 µM (inactive); with SF-539, 0.443 µM (active). Besides, the GI50 with NCI-H460 is 1.19 µM (inactive); with RPMI-8226, 0.112 µM (active); with SR, 15.1 µM (inactive); in the assay with SW-620 it was 1.47 µM (inactive); with COLO 205, 4.15 µM (inactive); in the assay with SNB-75 it was 0.23 µM (active). Also, the GI50 is 3.17 µM (inactive) with SF-295; 2.83 µM (inactive) in the assay on OVCAR-5; 0.597 µM (active) in the assay on U-251; 17.9 µM (inactive) with M14; 2.26 µM (inactive) in the assay with SNB-19; 8.2 µM (inactive) in the assay on NCI-H522. In addition, the GI50 is 2.36 µM (inactive) with OVCAR-8 and 10.6 µM (inactive) in the assay with SK-MEL-5.
Turning to `CC(C)=CCc1c(O)c(CC=C(C)C)c2oc3c(c(=O)c2c1O)C(C=C(C)C)Oc1cc(O)ccc1-3` (stereo not drawn), the GI50 is 3.12 µM (inactive) with RXF 393; 3.88 µM (inactive) with EKVX; 6.9 µM (inactive) in the assay with SN12C; 20.7 µM (inactive) in the assay on Malme-3M; 14 µM (inactive) in the assay on UACC-257; 11.7 µM (inactive) in the assay on SF-539. For the same compound, the GI50 in the assay with NCI-H460 is 4.49 µM (inactive); in the assay on RPMI-8226 it was 3.76 µM (inactive); in the assay on SR, 2.49 µM (inactive); in the assay with SW-620, 4.17 µM (inactive); with COLO 205 it was 16 µM (inactive); in the assay on SNB-75, 4.07 µM (inactive). The GI50 is 5.97 µM (inactive) with SF-295; 18.5 µM (inactive) with OVCAR-5; 4.78 µM (inactive) in the assay with U-251; 7.69 µM (inactive) in the assay on M14; 10.5 µM (inactive) in the assay with SNB-19; 3.9 µM (inactive) in the assay with NCI-H522. Further, the GI50 with OVCAR-8 is 6.85 µM (inactive); in the assay with SK-MEL-5, 8.53 µM (inactive).
Regarding `COc1cccc(NC(=O)CC(=O)N2N=C(N(CCC#N)c3ccc(Cl)cc3)CC2c2ccccc2)c1` (stereo not drawn), the GI50 in the assay on RXF 393, in the assay on EKVX, in the assay on SN12C, with Malme-3M, in the assay with UACC-257 and with SF-539 was > 100 µM (inactive) each time. In addition, the GI50 with NCI-H460, with RPMI-8226, with SR, in the assay on SW-620, with COLO 205 and with SNB-75 was > 100 µM (inactive) in each case. The GI50 with SF-295, with OVCAR-5, in the assay with U-251, with M14, in the assay with SNB-19 and in the assay with NCI-H522 was > 100 µM (inactive) throughout. Also, the GI50 with OVCAR-8 and with SK-MEL-5 was > 100 µM (inactive) in each case.
`CC(=O)OCC(OC(C)=O)C(OC(C)=O)C(OC(C)=O)C(/C=N\Nc1nc2ccccc2c(=O)[nH]1)=N/Nc1nc2ccccc2c(=O)[nH]1` (stereo not drawn): the GI50 with RXF 393 was > 100 µM (inactive); in the assay on EKVX, > 100 µM (inactive); with SN12C it was > 100 µM (inactive); with Malme-3M, > 100 µM (inactive); in the assay with UACC-257, > 100 µM (inactive); with SF-539, 18.2 µM (inactive). For the same compound, the GI50 with NCI-H460, with RPMI-8226, with SR, in the assay with SW-620, with COLO 205 and in the assay on SNB-75 was > 100 µM (inactive) throughout. The GI50 in the assay on SF-295, in the assay on OVCAR-5, in the assay with U-251, in the assay with M14, in the assay with SNB-19 and in the assay on NCI-H522 was > 100 µM (inactive) each time. Moreover, the GI50 in the assay on OVCAR-8 and with SK-MEL-5 was > 100 µM (inactive) in each case.
Consider `N#CC1(C#N)C(c2ccccc2)C=CC12OCCCO2` (stereo not drawn), for which the GI50 in the assay with RXF 393 is 17 µM (inactive); in the assay with EKVX, 59.3 µM (inactive); in the assay on SN12C, 32.6 µM (inactive); in the assay on Malme-3M, 42.2 µM (inactive); in the assay with UACC-257, 27.4 µM (inactive); in the assay with SF-539, 21.6 µM (inactive). Moreover, the GI50 is 42 µM (inactive) in the assay on NCI-H460; 27.7 µM (inactive) in the assay on RPMI-8226; 27 µM (inactive) in the assay on SR; 31.1 µM (inactive) in the assay on SW-620; 26.2 µM (inactive) in the assay with COLO 205; 42.9 µM (inactive) in the assay with SNB-75. Further, the GI50 in the assay with SF-295 was 76 µM (inactive); in the assay on OVCAR-5, 51.5 µM (inactive); with U-251 it was 45.2 µM (inactive); with M14 it was 29.7 µM (inactive); in the assay with SNB-19, > 100 µM (inactive); with NCI-H522, 16.3 µM (inactive). For the same compound, the values for the GI50 in the assay with OVCAR-8 and in the assay with SK-MEL-5 were 17.7 µM (inactive) and 53.8 µM (inactive), respectively.
As for `CC(=O)OC1COC(n2nc(/C=C/c3ccc(Cl)cc3)c(=O)n(/N=C/c3ccccc3)c2=S)C(OC(C)=O)C1OC(C)=O` (stereo not drawn), the GI50 with RXF 393, with EKVX, in the assay on SN12C, in the assay with Malme-3M, with UACC-257 and in the assay on SF-539 was > 100 µM (inactive) throughout. Also, the GI50 in the assay on NCI-H460, in the assay with RPMI-8226, in the assay on SR, in the assay on SW-620, in the assay on COLO 205 and with SNB-75 was > 100 µM (inactive) each time. Further, the GI50 with SF-295, in the assay on OVCAR-5, in the assay on U-251, in the assay on M14, with SNB-19 and in the assay on NCI-H522 was > 100 µM (inactive) throughout. The GI50 in the assay with OVCAR-8 and in the assay with SK-MEL-5 was > 100 µM (inactive) in each case.
As to `N#CC(/C(=N\NC(N)=S)C(=O)NC1C2CC3CC(C2)CC1C3)c1ccc(Cl)cc1` (stereo not drawn), the GI50 with RXF 393, in the assay with EKVX, in the assay on SN12C, in the assay on Malme-3M, in the assay on UACC-257 and with SF-539 was > 100 µM (inactive) in each case. Besides, the GI50 in the assay with NCI-H460, with RPMI-8226, with SR, in the assay with SW-620, in the assay with COLO 205 and in the assay with SNB-75 was > 100 µM (inactive) in each case. For the same compound, the GI50 with SF-295, in the assay on OVCAR-5, with U-251, in the assay with M14, with SNB-19 and in the assay on NCI-H522 was > 100 µM (inactive) each time. For the same compound, the GI50 with OVCAR-8 and in the assay with SK-MEL-5 was > 100 µM (inactive) throughout.
As for `CCOC(=O)/C(=C\NC(C)(C)C)c1nc2ccccc2[nH]1`, the GI50 is 23.5 µM (inactive) in the assay on RXF 393; 12.2 µM (inactive) in the assay on EKVX; 28.3 µM (inactive) in the assay with SN12C; 20.6 µM (inactive) with Malme-3M; 18.5 µM (inactive) in the assay on UACC-257; 16.8 µM (inactive) in the assay on SF-539. In addition, the GI50 was 17.7 µM (inactive) in the assay on NCI-H460; 17.2 µM (inactive) in the assay with RPMI-8226; 12.7 µM (inactive) in the assay with SR; 25.3 µM (inactive) in the assay on SW-620; 16 µM (inactive) in the assay on COLO 205; 23.7 µM (inactive) in the assay on SNB-75. For the same compound, the GI50 with SF-295 is 20.2 µM (inactive); with OVCAR-5, 21.5 µM (inactive); with M14 it was 20.1 µM (inactive); in the assay on SNB-19, 39.3 µM (inactive); in the assay with NCI-H522 it was 20.2 µM (inactive); with OVCAR-8 it was 26.1 µM (inactive). Moreover, the GI50 with SK-MEL-5 is 12.9 µM (inactive).
Consider `CN1OC2OC(=O)OC2[C@H]1[C@H]1O[C@H](c2ccccc2)OC1(C)c1cc(OC(=O)c2ccccc2)ccc1OC(=O)c1ccccc1` (stereo partly drawn), for which the GI50 in the assay with RXF 393, in the assay on EKVX, in the assay on SN12C, in the assay with Malme-3M, in the assay on UACC-257 and with SF-539 was > 50 µM (inactive) each time. Also, the GI50 in the assay with NCI-H460, in the assay on RPMI-8226, in the assay on SR, with SW-620, with COLO 205 and in the assay on SNB-75 was > 50 µM (inactive) in each case. In addition, the GI50 with OVCAR-5, in the assay with U-251, in the assay on M14, in the assay with SNB-19, in the assay with NCI-H522 and in the assay with OVCAR-8 was > 50 µM (inactive) in each case. For the same compound, in the assay with SK-MEL-5, the GI50 was > 50 µM (inactive).
